Test results published in patent US9403813B2, “Azetidine amide derivatives as orexin receptor antagonists” (ACTELION PHARMACEUTICALS LTD, priority 2013, dated 2016).

Columns and labels:
human orexin-1 receptor = human orexin-1 receptor (Homo sapiens (Human), UniProt O43613); assay: Intracellular calcium measurements (FLIPR), antagonism of orexin-A response; type: cell-based; conditions: CHO cells expressing human orexin-1 receptor, 3 nM orexin-A, geometric mean if determined several times, read-out: IC50 OX1
Chain of human orexin-1 receptor (O43613 whole entry): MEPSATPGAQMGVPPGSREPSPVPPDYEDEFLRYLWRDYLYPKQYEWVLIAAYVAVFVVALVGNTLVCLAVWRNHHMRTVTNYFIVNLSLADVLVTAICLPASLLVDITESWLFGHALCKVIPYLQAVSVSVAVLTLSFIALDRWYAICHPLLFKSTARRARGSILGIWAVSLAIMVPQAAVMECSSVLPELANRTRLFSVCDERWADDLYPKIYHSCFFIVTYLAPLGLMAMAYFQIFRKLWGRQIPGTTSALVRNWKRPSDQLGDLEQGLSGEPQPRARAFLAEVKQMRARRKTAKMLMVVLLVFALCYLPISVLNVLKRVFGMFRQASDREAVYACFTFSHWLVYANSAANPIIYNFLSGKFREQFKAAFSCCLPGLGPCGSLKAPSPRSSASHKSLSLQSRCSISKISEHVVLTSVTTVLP
In short: (§1)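 CHO cells expressing human OX1 or OX2 receptor, loaded with fluo-4 AM plus probenecid, preincubated with antagonist 120 min before 3 nM orexin-A challenge. FLIPR calcium peak heights compared with agonist-plus-vehicle response. IC50 possibly normalized to on-plate reference; geometric mean of repeat determinations.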

human orexin-2 receptor = human orexin-2 receptor (Homo sapiens (Human), UniProt O43614); assay: as above; type: cell-based; conditions: CHO cells expressing human orexin-2 receptor, 3 nM orexin-A, geometric mean if determined several times, read-out: IC50 OX2
Chain of human orexin-2 receptor (O43614 whole entry): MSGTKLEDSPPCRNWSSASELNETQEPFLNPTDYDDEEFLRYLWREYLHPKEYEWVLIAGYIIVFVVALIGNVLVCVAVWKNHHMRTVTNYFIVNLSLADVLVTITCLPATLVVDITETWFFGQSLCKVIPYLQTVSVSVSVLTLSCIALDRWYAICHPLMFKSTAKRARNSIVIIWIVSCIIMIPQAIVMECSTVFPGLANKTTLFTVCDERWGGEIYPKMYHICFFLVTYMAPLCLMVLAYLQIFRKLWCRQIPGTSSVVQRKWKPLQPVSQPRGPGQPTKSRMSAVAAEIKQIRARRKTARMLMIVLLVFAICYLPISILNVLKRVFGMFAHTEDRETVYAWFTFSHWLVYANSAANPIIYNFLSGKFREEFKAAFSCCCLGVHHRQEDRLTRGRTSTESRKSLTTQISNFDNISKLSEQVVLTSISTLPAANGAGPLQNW
In short: as §1

Compound | IC50 (human orexin-1 receptor) [nM] | IC50 (human orexin-2 receptor) [nM]
Cc1onc(-c2ccccc2Cl)c1C(=O)N1CC[C@H]1c1nc(-c2cccc(Cl)c2C)no1 [Example 72, {(S)-2-[3-(3-Chloro-2-methyl-phenyl)-[1,2,4]oxadiazol-5-yl]-azetidin-1-yl}-[3-(2-chloro-phenyl)-5-methyl-isoxazol-4-yl]-methanone] | 1400 | 666
Cc1c(Cl)cccc1-c1noc([C@@H]2CCN2C(=O)c2ccccc2-c2ccccc2)n1 [Example 73, Biphenyl-2-yl-{(S)-2-[3-(3-chloro-2-methyl-phenyl)-[1,2,4]oxadiazol-5-yl]-azetidin-1-yl}-methanone] | 383 | 20
COc1cc(C(=O)N2CC[C@H]2c2nc(-c3cccc(Cl)c3C)no2)c(-n2nccn2)cc1Cl [Example 74, (4-Chloro-5-methoxy-2-[1,2,3]triazol-2-yl-phenyl)-{(S)-2-[3-(3-chloro-2-methyl-phenyl)-[1,2,4]oxadiazol-5-yl]-azetidin-1-yl}-methanone] | 578 | 6
COc1cc(C(=O)N2CC[C@H]2c2nc(-c3ccccc3OC(F)(F)F)no2)c(-n2nccn2)cc1Cl [Example 75, (4-Chloro-5-methoxy-2-[1,2,3]triazol-2-yl-phenyl)-{(S)-2-[3-(2-trifluoromethoxy-phenyl)-[1,2,4]oxadiazol-5-yl]-azetidin-1-yl}-methanone] | 378 | 12
Cc1c(Cl)cccc1-c1noc([C@@H]2CCN2C(=O)c2ccc(Cl)cc2-n2nccn2)n1 [Example 76, {(S)-2-[3-(3-Chloro-2-methyl-phenyl)-[1,2,4]oxadiazol-5-yl]-azetidin-1-yl}-(4-chloro-2-[1,2,3]triazol-2-yl-phenyl)-methanone] | 909 | 11
O=C(c1ccc(Cl)cc1-n1nccn1)N1CC[C@H]1c1nc(-c2ccccc2OC(F)(F)F)no1 [Example 77, (4-Chloro-2-[1,2,3]triazol-2-yl-phenyl)-{(S)-2-[3-(2-trifluoromethoxy-phenyl)-[1,2,4]oxadiazol-5-yl]-azetidin-1-yl}-methanone] | 616 | 28
Cc1ccc(C(=O)N2CC[C@H]2c2nc(-c3cccc(Cl)c3C)no2)c(-n2nccn2)c1 [Example 78, {(S)-2-[3-(3-Chloro-2-methyl-phenyl)-[1,2,4]oxadiazol-5-yl]-azetidin-1-yl}-(4-methyl-2-[1,2,3]triazol-2-yl-phenyl)-methanone] | 646 | 22
Cc1ccc(C(=O)N2CC[C@H]2c2nc(-c3ccccc3OC(F)(F)F)no2)c(-n2nccn2)c1 [Example 79, (4-Methyl-2-[1,2,3]triazol-2-yl-phenyl)-{(S)-2-[3-(2-trifluoromethoxy-phenyl)-[1,2,4]oxadiazol-5-yl]-azetidin-1-yl}-methanone] | 338 | 17
Cc1c(Cl)cccc1-c1noc([C@@H]2CCN2C(=O)c2cc(Cl)ccc2-n2nccn2)n1 [Example 80, {(S)-2-[3-(3-Chloro-2-methyl-phenyl)-[1,2,4]oxadiazol-5-yl]-azetidin-1-yl}-(5-chloro-2-[1,2,3]triazol-2-yl-phenyl)-methanone] | 756 | 49
O=C(c1cc(Cl)ccc1-n1nccn1)N1CC[C@H]1c1nc(-c2ccccc2OC(F)(F)F)no1 [Example 81, (5-Chloro-2-[1,2,3]triazol-2-yl-phenyl)-{(S)-2-[3-(2-trifluoromethoxy-phenyl)-[1,2,4]oxadiazol-5-yl]-azetidin-1-yl}-methanone] | 338 | 47
Cc1cc(-n2nccn2)c(C(=O)N2CC[C@H]2c2nc(-c3cccc(Cl)c3C)no2)cc1Cl [Example 82, {(S)-2-[3-(3-Chloro-2-methyl-phenyl)-[1,2,4]oxadiazol-5-yl]-azetidin-1-yl}-(5-chloro-4-methyl-2-[1,2,3]triazol-2-yl-phenyl)-methanone] | 171 | 10
Cc1cc(-n2nccn2)c(C(=O)N2CC[C@H]2c2nc(-c3ccccc3OC(F)(F)F)no2)cc1Cl [Example 83, (5-Chloro-4-methyl-2-[1,2,3]triazol-2-yl-phenyl)-{(S)-2-[3-(2-trifluoromethoxy-phenyl)-[1,2,4]oxadiazol-5-yl]-azetidin-1-yl}-methanone] | 167 | 13
Cc1ccc(-n2nccn2)c(C(=O)N2CC[C@H]2c2noc(-c3ccccc3OC(F)(F)F)n2)c1 [Example 84, (5-Methyl-2-[1,2,3]triazol-2-yl-phenyl)-{(S)-2-[5-(2-trifluoromethoxy-phenyl)-[1,2,4]oxadiazol-3-yl]-azetidin-1-yl}-methanone] | 103 | 11
Cc1cc(C(=O)N2CC[C@H]2c2noc(-c3ccccc3OC(F)(F)F)n2)c(-n2nccn2)cc1C [Example 85, (4,5-Dimethyl-2-[1,2,3]triazol-2-yl-phenyl)-{(S)-2-[5-(2-trifluoromethoxy-phenyl)-[1,2,4]oxadiazol-3-yl]-azetidin-1-yl}-methanone] | 34 | 3
COc1cc(C(=O)N2CC[C@H]2c2noc(-c3ccccc3OC(F)(F)F)n2)c(-n2nccn2)cc1C [Example 86, (5-Methoxy-4-methyl-2-[1,2,3]triazol-2-yl-phenyl)-{(S)-2-[5-(2-trifluoromethoxy-phenyl)-[1,2,4]oxadiazol-3-yl]-azetidin-1-yl}-methanone] | 193 | 4
COc1cc(C(=O)N2CC[C@H]2c2noc(-c3ccccc3OC(F)(F)F)n2)c(-n2nccn2)cc1F [Example 87, (4-Fluoro-5-methoxy-2-[1,2,3]triazol-2-yl-phenyl)-{(S)-2-[5-(2-trifluoromethoxy-phenyl)-[1,2,4]oxadiazol-3-yl]-azetidin-1-yl}-methanone] | 1340 | 78
COc1cc(C(=O)N2CC[C@H]2c2noc(-c3cccc(F)c3OC)n2)c(-n2nccn2)cc1C [Example 88, {(S)-2-[5-(3-Fluoro-2-methoxy-phenyl)-[1,2,4]oxadiazol-3-yl]-azetidin-1-yl}-(5-methoxy-4-methyl-2-[1,2,3]triazol-2-yl-phenyl)-methanone] | 178 | 0.6
Cc1cc(C(=O)N2CC[C@H]2c2noc(-c3cccc(F)c3C)n2)c(-n2nccn2)cc1C [Example 89, (4,5-Dimethyl-2-[1,2,3]triazol-2-yl-phenyl)-{(S)-2-[5-(3-fluoro-2-methyl-phenyl)-[1,2,4]oxadiazol-3-yl]-azetidin-1-yl}-methanone] | 82 | 3
CCOc1ncccc1-c1nc([C@@H]2CCN2C(=O)c2cc(C)ccc2-n2nccn2)no1 [Example 90, {(S)-2-[5-(2-Ethoxy-pyridin-3-yl)-[1,2,4]oxadiazol-3-yl]-azetidin-1-yl}-(5-methyl-2-[1,2,3]triazol-2-yl-phenyl)-methanone] | 52 | 2
CCOc1ncccc1-c1nc([C@@H]2CCN2C(=O)c2cc(C)c(C)cc2-n2nccn2)no1 [Example 91, (4,5-Dimethyl-2-[1,2,3]triazol-2-yl-phenyl)-{(S)-2-[5-(2-ethoxy-pyridin-3-yl)-[1,2,4]oxadiazol-3-yl]-azetidin-1-yl}-methanone] | 17 | 0.6
CCOc1ncccc1-c1nc([C@@H]2CCN2C(=O)c2cc(OC)c(C)cc2-n2nccn2)no1 [Example 92, {(S)-2-[5-(2-Ethoxy-pyridin-3-yl)-[1,2,4]oxadiazol-3-yl]-azetidin-1-yl}-(5-methoxy-4-methyl-2-[1,2,3]triazol-2-yl-phenyl)-methanone] | 37 | 1
Cc1ccc(-n2nccn2)c(C(=O)N2CC[C@H]2c2noc(-c3cccc(F)c3C)n2)c1 [Example 93, {(S)-2-[5-(3-Fluoro-2-methyl-phenyl)-[1,2,4]oxadiazol-3-yl]-azetidin-1-yl}-(5-methyl-2-[1,2,3]triazol-2-yl-phenyl)-methanone] | 655 | 8
COc1cc(C(=O)N2CC[C@H]2c2noc(-c3ccccc3OC(F)(F)F)n2)c(-n2nccn2)cc1Cl [Example 94, (4-Chloro-5-methoxy-2-[1,2,3]triazol-2-yl-phenyl)-{(S)-2-[5-(2-trifluoromethoxy-phenyl)-[1,2,4]oxadiazol-3-yl]-azetidin-1-yl}-methanone] | 326 | 11
Cc1cc(-n2nccn2)c(C(=O)N2CC[C@H]2c2noc(-c3ccccc3OC(F)(F)F)n2)cc1Cl [Example 95, (5-Chloro-4-methyl-2-[1,2,3]triazol-2-yl-phenyl)-{(S)-2-[5-(2-trifluoromethoxy-phenyl)-[1,2,4]oxadiazol-3-yl]-azetidin-1-yl}-methanone] | 60 | 6
COc1cc(C(=O)N2CC[C@H]2c2noc(-c3cccc(F)c3C)n2)c(-n2nccn2)cc1Cl [Example 96, (4-Chloro-5-methoxy-2-[1,2,3]triazol-2-yl-phenyl)-{(S)-2-[5-(3-fluoro-2-methyl-phenyl)-[1,2,4]oxadiazol-3-yl]-azetidin-1-yl}-methanone] | 306 | 3
CCOc1ncccc1-c1nc([C@@H]2CCN2C(=O)c2ccc(C)cc2-n2nccn2)no1 [Example 97, {(S)-2-[5-(2-Ethoxy-pyridin-3-yl)-[1,2,4]oxadiazol-3-yl]-azetidin-1-yl}-(4-methyl-2-[1,2,3]triazol-2-yl-phenyl)-methanone] | 257 | 10
CCOc1ncccc1-c1nc([C@@H]2CCN2C(=O)c2cc(OC)c(Cl)cc2-n2nccn2)no1 [Example 98, (4-Chloro-5-methoxy-2-[1,2,3]triazol-2-yl-phenyl)-{(S)-2-[5-(2-ethoxy-pyridin-3-yl)-[1,2,4]oxadiazol-3-yl]-azetidin-1-yl}-methanone] | 83 | 1
